# According to PubChem BioAssay (NCI):
# Values joined by “and” are separate entries in the source; they are usually repeats but may differ in a detail not shown here. Equal values may be shown once.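 Method: 48-hour compound exposure of cells in 96-well plates, five concentrations, linear interpolation of endpoints. GI50 marks 50% less growth. TGI is the concentration that stops growth completely.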
# Key:
# Assay in all cases: NCI tumour cell line growth inhibition, 48 h
# [1] = tested on: MALME-3M melanoma
# [2] = tested on: UACC-62 melanoma
# [3] = tested on: HT29 colon
# [4] = tested on: HCT-15 colon
# [5] = tested on: OVCAR-5 ovarian
# [6] = tested on: OVCAR-3 ovarian
# [7] = tested on: UACC-257 melanoma
# [8] = tested on: SR leukemia
# [9] = tested on: M14 melanoma
# [10] = tested on: IGROV1 ovarian
# [11] = tested on: HOP-92 NSCLC
# [12] = tested on: HOP-62 NSCLC
# [13] = tested on: PC-3 prostate
# [14] = tested on: SF-539 CNS
# [15] = tested on: UO-31 renal
# [16] = tested on: CCRF-CEM leukemia
# [17] = tested on: HCC-2998 colon
# [18] = tested on: SK-MEL-28 melanoma
# [19] = tested on: A549 NSCLC
# [20] = tested on: 786-0 renal
# [21] = tested on: COLO 205 colon
# [22] = tested on: MDA-MB-231 breast
# [23] = tested on: T-47D breast
# [24] = tested on: TK-10 renal
# [25] = tested on: ACHN renal
# [26] = tested on: MOLT-4 leukemia
# [27] = tested on: RPMI-8226 leukemia
# [28] = tested on: K-562 leukemia
# [29] = tested on: MDA-MB-435
# [30] = tested on: A498 renal
# [31] = tested on: NCI-H522 lung
# [32] = tested on: SW-620 colon
# [33] = tested on: CAKI-1 renal
# [34] = tested on: HS 578T breast
# [35] = tested on: NCI-H460 lung
# [36] = tested on: SK-OV-3 ovarian
# [37] = tested on: LOX IMVI melanoma
# [38] = tested on: EKVX NSCLC
# [39] = tested on: RXF 393 renal
# [40] = tested on: KM12 colon
# [41] = tested on: DU-145 prostate
# [42] = tested on: BT-549 breast
# [43] = tested on: NCI-H226 lung
# [44] = tested on: OVCAR-8 ovarian
# [45] = tested on: SF-295 CNS
# [46] = tested on: MCF7 breast
# [47] = tested on: SK-MEL-2 melanoma
# [48] = tested on: NCI-H23 lung
# [49] = tested on: NCI/ADR-RES ovarian
# [50] = tested on: SNB-75 CNS
# [51] = tested on: HCT-116 colon
# [52] = tested on: HL-60(TB) leukemia
# [53] = tested on: OVCAR-4 ovarian
# [54] = tested on: SN12C renal
# [55] = tested on: SK-MEL-5 melanoma
# [56] = tested on: SF-268 CNS
# [57] = tested on: U251 CNS
# [58] = tested on: SNB-19 CNS
structure (smiles),measurement,setting,value
NC(=O)c1ccc2nc(-c3ccc(Oc4ccc(Cl)cc4)cc3)[nH]c2c1,GI50,[1],32.4 µM and 18.2 µM
same,TGI,[1],75 µM and 33.6 µM
same,GI50,[2],75 µM and 16.4 µM
same,TGI,[2],75 µM and 30.7 µM
same,GI50,[3],21.6 µM and 12.3 µM
same,TGI,[3],75 µM and 28.1 µM
same,GI50,[4],23.6 µM and 12.6 µM
same,TGI,[4],75 µM and 31 µM
same,GI50,[5],> 75 µM and 18.6 µM
same,TGI,[5],> 75 µM and 36.8 µM
same,GI50,[6],20.8 µM and 14.4 µM
same,TGI,[6],75 µM and 34.8 µM
same,GI50,[7],66.7 µM and 18.4 µM
same,TGI,[7],75 µM and 33.5 µM
same,GI50,[8],17.9 µM and 20.6 µM
same,TGI,[8],61.5 µM and 57.3 µM
same,GI50,[9],19.9 µM and 14.8 µM
same,TGI,[9],75 µM and 29.8 µM
same,GI50,[10],30.9 µM and 15.9 µM
same,TGI,[10],75 µM and 36.2 µM
same,GI50,[11],> 75 µM
same,TGI,[11],> 75 µM
same,GI50,[12],48.4 µM and 13.7 µM
same,TGI,[12],75 µM and 36.1 µM
same,GI50,[13],55.3 µM and 11.2 µM
same,TGI,[13],75 µM and 25.5 µM
same,GI50,[14],27.6 µM and 13 µM
same,TGI,[14],75 µM and 28 µM
same,GI50,[15],30 µM and 24.1 µM
same,TGI,[15],75 µM and > 100 µM
same,GI50,[16],23.5 µM and 15.7 µM
same,TGI,[16],75 µM and 64.1 µM
same,TGI,[17],75 µM and 33.5 µM
same,GI50,[18],40.4 µM and 15.6 µM
same,TGI,[18],75 µM and 29 µM
same,GI50,[19],49.8 µM and 10.4 µM
same,TGI,[19],75 µM and 28 µM
same,GI50,[20],48 µM and 16.1 µM
same,TGI,[20],75 µM and 39.4 µM
same,GI50,[21],22.3 µM and 20.8 µM
same,TGI,[21],75 µM and 38.9 µM
same,GI50,[22],> 75 µM and 18.8 µM
same,TGI,[22],> 75 µM and 36.3 µM
same,TGI,[23],> 75 µM and 20.7 µM
same,GI50,[24],8.61 µM and 16.4 µM
same,TGI,[24],75 µM and 39.9 µM
same,GI50,[25],13.9 µM and 14.4 µM
same,TGI,[25],75 µM and 30.2 µM
same,GI50,[26],28.6 µM and 11.5 µM
same,TGI,[26],75 µM and 33.3 µM
same,GI50,[27],> 75 µM and 10.9 µM
same,TGI,[27],> 75 µM and 37.6 µM
same,GI50,[28],37.8 µM and 10.3 µM
same,TGI,[28],75 µM and 88.3 µM
same,GI50,[29],34.4 µM and 14.5 µM
same,TGI,[29],75 µM and 31.2 µM
same,GI50,[30],21.2 µM and 15.7 µM
same,TGI,[30],75 µM and 30.1 µM
same,GI50,[31],18.9 µM and 19.9 µM
same,TGI,[31],75 µM and 75.2 µM
same,GI50,[32],23 µM and 9.61 µM
same,TGI,[32],75 µM and 25.9 µM
same,GI50,[33],6.4 µM and 16.5 µM
same,TGI,[33],39.6 µM and 49.8 µM
same,GI50,[34],24.2 µM and 16.5 µM
same,TGI,[34],75 µM and 42.6 µM
same,GI50,[35],23.4 µM and 14.1 µM
same,TGI,[35],75 µM and 32.7 µM
same,GI50,[36],17.7 µM and 23.1 µM
same,TGI,[36],75 µM and 48.2 µM
same,GI50,[37],17.9 µM and 15.6 µM
same,TGI,[37],75 µM and 36.7 µM
same,GI50,[38],> 75 µM
same,TGI,[38],> 75 µM
same,GI50,[39],48.9 µM and 14.9 µM
same,TGI,[39],75 µM and 30.2 µM
same,GI50,[40],65 µM and 13.9 µM
same,TGI,[40],75 µM and 31.3 µM
same,GI50,[41],35 µM and 13 µM
same,TGI,[41],75 µM and 29.8 µM
same,GI50,[42],18 µM and 12.9 µM
same,TGI,[42],67.1 µM and 28.2 µM
same,GI50,[43],49.1 µM and 14 µM
same,TGI,[43],75 µM and 57.6 µM
same,GI50,[44],58 µM and 12.9 µM
same,TGI,[44],75 µM and 34.4 µM
same,GI50,[45],> 75 µM
same,TGI,[45],> 75 µM
same,GI50,[46],33.1 µM and 6.4 µM
same,TGI,[46],75 µM and 23.9 µM
same,GI50,[47],18.3 µM and 21.2 µM
same,TGI,[47],75 µM and 40.2 µM
same,GI50,[48],67.5 µM and 13.5 µM
same,TGI,[48],75 µM and 32.7 µM
same,GI50,[49],> 75 µM and 13.3 µM
same,TGI,[49],> 75 µM and 32.9 µM
same,GI50,[50],37 µM and 18.3 µM
same,TGI,[50],75 µM and 38.5 µM
same,GI50,[51],8.14 µM and 12.3 µM
same,TGI,[51],75 µM and 33.4 µM
same,GI50,[52],12.4 µM and 17.3 µM
same,TGI,[52],58.7 µM and 41.2 µM
same,GI50,[53],41.7 µM and 11.4 µM
same,TGI,[53],75 µM and 31.1 µM
same,GI50,[54],39.4 µM and 14.6 µM
same,TGI,[54],75 µM and 30.2 µM
same,GI50,[55],28.7 µM and 7.98 µM
same,TGI,[55],75 µM and 23.7 µM
same,GI50,[56],36.7 µM and 19.2 µM
same,TGI,[56],75 µM and 46.2 µM
same,GI50,[57],56.6 µM and 9.01 µM
same,TGI,[57],75 µM and 22.6 µM
same,GI50,[58],> 75 µM and 22.5 µM
same,TGI,[58],> 75 µM and 52.6 µM
